# Results as given in patent publication US8710089B2, “Triazole derivatives as ghrelin analogue ligands of growth hormone secretagogue receptors” (Zentaris GmbH, priority 2005, dated 2014).
# Target: T1, human GHS-R 1a (Homo sapiens, UniProt Q92847)
# T1 construct: expressed in transfected cells; host or cells: LLC PK-1 porcine renal epithelial cells (ECACC No. 86121112), isolated plasma membranes
# Experiment: GHS-R 1a receptor-ligand binding assay (membrane preparations from transfected LLC PK-1 cells)
# Settings: displacement of 125I-His9-ghrelin (60 pM); membranes of LLC PK-1 cells transfected with human GHS-R 1a; mean of at least two independent experiments in triplicates
# Method: (J. Med. […] Med. Chem. 2003, 46: 1191-1203), were incubated in homogenization buffer HB [50 mM Tris (pH 7.3), 5 mM MgCl2, 2.5 mM EDTA, and 30 μg/mL bacitracin (Sigma)] for 60 min at 25° C. (steady-state conditions) with 60 pM ^125I-[…]-ghrelin (Amersham) in the presence or absence of competing compounds (compounds of the invention). […] Nonspecific binding was defined using an excess (10^-6 M) of ghrelin. The binding reaction was stopped by addition of 4 mL of ice-cold HB followed by rapid filtration over Whatman GP/C filters presoaked with 0.5% polyethyleneimine to prevent excessive binding of radioligand to the filters. […] IC50 values given are the mean of at least two independent experiments performed in triplicates.
# T1 sequence (Q92847 whole entry): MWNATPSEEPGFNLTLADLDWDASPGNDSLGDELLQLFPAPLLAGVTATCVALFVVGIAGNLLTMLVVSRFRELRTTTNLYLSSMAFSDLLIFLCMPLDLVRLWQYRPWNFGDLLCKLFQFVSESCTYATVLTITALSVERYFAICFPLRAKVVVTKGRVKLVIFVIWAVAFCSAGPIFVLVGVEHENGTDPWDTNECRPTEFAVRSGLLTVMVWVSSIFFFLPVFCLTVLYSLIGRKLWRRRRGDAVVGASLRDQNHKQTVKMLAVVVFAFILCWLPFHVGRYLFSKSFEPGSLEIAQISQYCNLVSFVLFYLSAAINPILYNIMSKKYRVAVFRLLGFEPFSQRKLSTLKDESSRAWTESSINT
row,IC50 [nM],Structure (SMILES)
1,37,"COc1ccc(Cn2c(CCCc3c[nH]c4ccccc34)nnc2[C@@H](Cc2c[nH]c3ccccc23)NC(=O)C(C)(C)N)cc1 [compound 23, (R)—N-(1-(5-(3-(1H-indol-3-yl)propyl)-4-(4-methoxybenzyl)-4H-1,2,4-triazol-3-yl)-2-(1H-indol-3-yl)ethyl)-2-amino-2-methylpropanamide]"
2,18,"COc1cccc(Cn2c(CCc3c[nH]c4ccccc34)nnc2[C@@H](Cc2c[nH]c3ccccc23)NC(=O)C(C)(C)N)c1 [compound 6, (R)—N-(1-(5-(2-(1H-indol-3-yl)ethyl)-4-(3-methoxybenzyl)-4H-1,2,4-triazol-3-yl)-2-(1H-indol-3-yl)ethyl)-2-amino-2-methylpropanamide]"
3,138,"COc1ccc(Cn2c(CCc3c[nH]c4ccccc34)nnc2[C@@H](Cc2c[nH]c3ccccc23)NC(=O)CN)cc1 [compound 152, N—((R)-1-(5-(2-(1H-indol-3-yl)ethyl)-4-(4-methoxybenzyl)-4H-1,2,4-triazol-3-yl)-2-(1H-indol-3-yl)ethyl)-2-aminoacetamide]"
4,35,"O=C(N[C@H](Cc1c[nH]c2ccccc12)c1nnc(CCc2c[nH]c3ccccc23)n1Cc1ccccc1)C1CCNCC1 [compound 54, (R)—N-(1-(5-(2-(1H-indol-3-yl)ethyl)-4-benzyl-4H-1,2,4-triazol-3-yl)-2-(1H-indol-3-yl)ethyl)piperidine-4-carboxamide]"
5,0.9,"COc1ccc(Cn2c(CCc3ccccc3)nnc2[C@@H](Cc2c[nH]c3ccccc23)NC(=O)C2CCNCC2)c(OC)c1 [compound 62, (R)—N-(1-(4-(2,4-dimethoxybenzyl)-5-phenethyl-4H-1,2,4-triazol-3-yl)-2-(1H-indol-3-yl)ethyl)piperidine-4-carboxamide]"
6,247,CCc1ccc(Cn2c(CCc3ccccc3)nnc2[C@@H](Cc2c[nH]c3ccccc23)NC(=O)C2CNCCN2)cc1 (mixture of isomers) [compound 84]
7,6,"COc1ccc(Cn2c(CCc3c[nH]c4ccccc34)nnc2[C@@H](Cc2c[nH]c3ccccc23)NC(=O)[C@@H]2CCCN2)c(OC)c1 [compound 70, (S)—N—((R)-1-(5-(2-(1H-indol-3-yl)ethyl)-4-(2,4-dimethoxybenzyl)-4H-1,2,4-triazol-3-yl)-2-(1H-indol-3-yl)ethyl)pyrrolidine-2-carboxamide]"
8,188,"CCc1ccc(Cn2c(CCc3ccccc3)nnc2[C@@H](Cc2c[nH]c3ccccc23)NC(=O)[C@H]2CCCNC2)cc1 [compound 155, (3S)—N—((R)-1-(4-(4-ethylbenzyl)-5-phenethyl-4H-1,2,4-triazol-3-yl)-2-(1H-indol-3-yl)ethyl)piperidine-3-carboxamide]"
9,114,"CC(C)(N)C(=O)N[C@H](Cc1c[nH]c2ccccc12)c1nnc(CCc2ccccc2)n1Cc1ccccc1 [compound 173, N—((R)-1-(4-benzyl-5-phenethyl-4H-1,2,4-triazol-3-yl)-2-(1H-indol-3-yl)ethyl)-2-amino-2-methylpropanamide]"
10,29,"COc1ccc(Cn2c(CCc3c[nH]c4ccccc34)nnc2[C@@H](Cc2c[nH]c3ccccc23)NC(=O)[C@H]2CCCCN2)cc1 [compound 88, (R)—N—((R)-1-(5-(2-(1H-indol-3-yl)ethyl)-4-(4-methoxybenzyl)-4H-1,2,4-triazol-3-yl)-2-(1H-indol-3-yl)ethyl)piperidine-2-carboxamide]"
11,7,"COc1ccc(Cn2c(CCc3ccccc3)nnc2[C@@H](Cc2c[nH]c3ccccc23)NC(=O)[C@@H]2CCCNC2)cc1 [compound 42, (R)—N—((R)-1-(4-(4-methoxybenzyl)-5-phenethyl-4H-1,2,4-triazol-3-yl)-2-(1H-indol-3-yl)ethyl)piperidine-3-carboxamide]"
12,175,"COc1ccc(Cn2c(CCc3ccccc3)nnc2[C@@H](Cc2c[nH]c3ccccc23)NC(=O)[C@@H](N)Cc2ccccc2)cc1 [compound 186, (2S)—N—((R)-1-(4-(4-methoxybenzyl)-5-phenethyl-4H-1,2,4-triazol-3-yl)-2-(1H-indol-3-yl)ethyl)-2-amino-3-phenylpropanamide]"
13,140,"COc1ccc(Cn2c(CCc3ccccc3)nnc2[C@@H](Cc2c[nH]c3ccccc23)NC(=O)CN)c(OC)c1 [compound 75, (R)—N-(1-(4-(2,4-dimethoxybenzyl)-5-phenethyl-4H-1,2,4-triazol-3-yl)-2-(1H-indol-3-yl)ethyl)-2-aminoacetamide]"
14,105,"O=C(N[C@H](Cc1c[nH]c2ccccc12)c1nnc(CCc2ccccc2)n1-c1ccccc1)c1ccccn1 [compound 146, N—((R)-2-(1H-indol-3-yl)-1-(5-phenethyl-4-phenyl-4H-1,2,4-triazol-3-yl)ethyl)picolinamide]"
15,11,"COc1ccc(Cn2c(CCc3c[nH]c4ccccc34)nnc2[C@@H](Cc2c[nH]c3ccccc23)NC(=O)Cc2ccccn2)cc1 [compound 91, (R)—N-(1-(5-(2-(1H-indol-3-yl)ethyl)-4-(4-methoxybenzyl)-4H-1,2,4-triazol-3-yl)-2-(1H-indol-3-yl)ethyl)-2-(pyridin-2-yl)acetamide]"
16,140,"CC(C)(N)C(=O)N[C@H](Cc1c[nH]c2ccccc12)c1nnc(CCc2c[nH]c3ccccc23)n1-c1ccccc1 [compound 175, N—((R)-1-(5-(2-(1H-indol-3-yl)ethyl)-4-phenyl-4H-1,2,4-triazol-3-yl)-2-(1H-indol-3-yl)ethyl)-2-amino-2-methylpropanamide]"
17,11,"O=C(N[C@H](Cc1c[nH]c2ccccc12)c1nnc(CCc2c[nH]c3ccccc23)n1Cc1ccccc1)C1CCCNC1 (mixture of isomers) [compound 55, (R)—N-(1-(5-(2-(1H-indol-3-yl)ethyl)-4-benzyl-4H-1,2,4-triazol-3-yl)-2-(1H-indol-3-yl)ethyl)piperidine-3-carboxamide]"
18,44,"COc1ccc(Cn2c(CCc3ccccc3)nnc2[C@@H](Cc2c[nH]c3ccccc23)NC(=O)[C@@H]2CCCN2)c(OC)c1 [compound 68, (S)—N—((R)-1-(4-(2,4-dimethoxybenzyl)-5-phenethyl-4H-1,2,4-triazol-3-yl)-2-(1H-indol-3-yl)ethyl)pyrrolidine-2-carboxamide]"
19,125,"CC(C)(N)C(=O)N[C@H](Cc1c[nH]c2ccccc12)c1nnc(CCc2c[nH]c3ccccc23)n1Cc1cccc2ccccc12 [compound 5, (R)—N-(1-(5-(2-(1H-indol-3-yl)ethyl)-4-(naphthalen-1-ylmethyl)-4H-1,2,4-triazol-3-yl)-2-(1H-indol-3-yl)ethyl)-2-amino-2-methylpropanamide]"
20,62,"COc1ccc(Cn2c(CCc3ccccc3)nnc2[C@@H](Cc2c[nH]c3ccccc23)NC(=O)C(C)(C)N)c(OC)c1 [compound 179, N—((R)-1-(4-(2,4-dimethoxybenzyl)-5-phenethyl-4H-1,2,4-triazol-3-yl)-2-(1H-indol-3-yl)ethyl)-2-amino-2-methylpropanamide]"
21,54,COc1ccc(Cn2c(CCc3ccccc3)nnc2[C@@H](Cc2c[nH]c3ccccc23)NC(=O)C2CNCCN2)cc1 (stereo partly shown) [compound 78]
22,56,"COc1ccccc1Cn1c(CCc2ccccc2)nnc1[C@@H](Cc1c[nH]c2ccccc12)NC(=O)C(C)(C)N [compound 26, (R)—N-(1-(4-(2-methoxybenzyl)-5-phenethyl-4H-1,2,4-triazol-3-yl)-2-(1H-indol-3-yl)ethyl)-2-amino-2-methylpropanamide]"
23,32,"COc1cccc(Cn2c(CCCc3c[nH]c4ccccc34)nnc2[C@@H](Cc2c[nH]c3ccccc23)NC(=O)C(C)(C)N)c1 [compound 10, (R)—N-(1-(5-(3-(1H-indol-3-yl)propyl)-4-(3-methoxybenzyl)-4H-1,2,4-triazol-3-yl)-2-(1H-indol-3-yl)ethyl)-2-amino-2-methylpropanamide]"
24,~25000,"CC(C)(N)C(=O)N[C@H](COCc1ccccc1)c1nnnn1Cc1ccccc1 [Example from page 175, WO 00/54729 A2, (S)—N-(1-(1-benzyl-tetrazol-5-yl)-2-(benzyloxy)ethyl)-2-amino-2-methylpropanamide, reference compound]"
25,16,"COc1ccc(Cn2c(CCc3ccccc3)nnc2[C@@H](Cc2c[nH]c3ccccc23)NC(=O)[C@H]2CCCNC2)cc1 [compound 41, (S)—N—((R)-1-(4-(4-methoxybenzyl)-5-phenethyl-4H-1,2,4-triazol-3-yl)-2-(1H-indol-3-yl)ethyl)piperidine-3-carboxamide]"
26,137,"CC(C)(N)C(=O)N[C@H](Cc1c[nH]c2ccccc12)c1nnc(CCCc2c[nH]c3ccccc23)n1Cc1cccc2ccccc12 [compound 11, (R)—N-(1-(5-(3-(1H-indol-3-yl)propyl)-4-(naphthalen-1-ylmethyl)-4H-1,2,4-triazol-3-yl)-2-(1H-indol-3-yl)ethyl)-2-amino-2-methylpropanamide]"
27,136,"Cc1ccc(Cn2c(CCc3ccccc3)nnc2[C@@H](Cc2c[nH]c3ccccc23)NC(=O)C(C)(C)N)cc1 [compound 37, (R)—N-(1-(4-(4-methylbenzyl)-5-phenethyl-4H-1,2,4-triazol-3-yl)-2-(1H-indol-3-yl)ethyl)-2-amino-2-methylpropanamide]"
28,12,"COc1ccc(Cn2c(CCc3c[nH]c4ccccc34)nnc2[C@@H](Cc2c[nH]c3ccccc23)NC(=O)[C@@H]2C=CCN2)cc1 [compound 190, (2S)—N—((R)-1-(5-(2-(1H-indol-3-yl)ethyl)-4-(4-methoxybenzyl)-4H-1,2,4-triazol-3-yl)-2-(1H-indol-3-yl)ethyl)-2,5-dihydro-1H-pyrrole-2-carboxamide]"
